In PubChem BioAssay AID248 (DTP/NCI, 2004):
Values joined by “and” are separate entries in the source; they are usually repeats but may differ in a detail not shown here. Equal values may be shown once. Inconclusive results and toxic doses are left out.

Test system: L1210 leukemia ip in BDF1 mice, survival T/C
Experiment: NCI In Vivo Anticancer Drug Screen. Data for tumor model L1210 Leukemia (intraperitoneal) in B6D2F1 (BDF1) mice
Conditions: higher = longer survival
In short: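 Tumor was transplanted into mice, which were then dosed with test compound or vehicle alone. Survival was recorded for each group, and the treated figure was expressed relative to the control figure.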

O=C(O)CCCc1ccc(N(CCCl)CCCl)cc1
T/C (endpoint: mean survival time, dose: 0.5 mg/kg/injection, schedule: Q01DX009 (ip), vehicle: saline with Tween-80): 101 % of control and 104 % of control
T/C (endpoint: mean survival time, dose: 1.0 mg/kg/injection, schedule: Q01DX009 (ip), vehicle: saline with Tween-80): 96 % of control and 106 % of control
T/C (endpoint: mean survival time, dose: 1.0 mg/kg/injection, schedule: Q04DX002 (ip), vehicle: saline with Tween-80): 95 % of control and 105 % of control
T/C (endpoint: mean survival time, dose: 1.0 mg/kg/injection, schedule: Q12HX018 (ip), vehicle: saline with Tween-80): 107 % of control
T/C (endpoint: mean survival time, dose: 1.81 mg/kg/injection, schedule: Q01DX Z (ip), vehicle: carboxymethylcellulose (CMC)): 103 % of control
T/C (endpoint: mean survival time, dose: 2.0 mg/kg/injection, schedule: Q01DX009 (ip), vehicle: saline with Tween-80): 103 % of control and 107 % of control
T/C (endpoint: mean survival time, dose: 2.0 mg/kg/injection, schedule: Q04DX002 (ip), vehicle: saline with Tween-80): 100 % of control and 105 % of control
T/C (endpoint: mean survival time, dose: 2.0 mg/kg/injection, schedule: Q08HX027 (ip), vehicle: acetone): 120 % of control
T/C (endpoint: mean survival time, dose: 2.0 mg/kg/injection, schedule: Q12HX018 (ip), vehicle: acetone): 110 % of control and 111 % of control and 121 % of control
T/C (endpoint: mean survival time, dose: 2.0 mg/kg/injection, schedule: Q12HX018 (ip), vehicle: saline with Tween-80): 115 % of control
T/C (endpoint: mean survival time, dose: 2.5 mg/kg/injection, schedule: Q01DX001 (ip), vehicle: carboxymethylcellulose (CMC)): 112 % of control
T/C (endpoint: mean survival time, dose: 3.62 mg/kg/injection, schedule: Q01DX Z (ip), vehicle: carboxymethylcellulose (CMC)): 106 % of control
T/C (endpoint: mean survival time, dose: 4.0 mg/kg/injection, schedule: Q01DX009 (ip), vehicle: acetone): 112 % of control and 123 % of control
T/C (endpoint: mean survival time, dose: 4.0 mg/kg/injection, schedule: Q01DX009 (ip), vehicle: saline with Tween-80): 100 % of control and 115 % of control
T/C (endpoint: mean survival time, dose: 4.0 mg/kg/injection, schedule: Q04DX002 (ip), vehicle: saline with Tween-80): 96 % of control and 102 % of control
T/C (endpoint: mean survival time, dose: 4.0 mg/kg/injection, schedule: Q12HX018 (ip), vehicle: Klucel (hydroxypropylcellulose) (HPC)): 115 % of control
T/C (endpoint: mean survival time, dose: 4.0 mg/kg/injection, schedule: Q12HX018 (ip), vehicle: acetone): 122 % of control
T/C (endpoint: mean survival time, dose: 4.0 mg/kg/injection, schedule: Q12HX018 (ip), vehicle: other): 112 % of control and 121 % of control
T/C (endpoint: mean survival time, dose: 4.0 mg/kg/injection, schedule: Q12HX018 (ip), vehicle: saline with Tween-80): 124 % of control
T/C (endpoint: mean survival time, dose: 5.0 mg/kg/injection, schedule: Q01DX001 (ip), vehicle: carboxymethylcellulose (CMC)): 103 % of control
T/C (endpoint: mean survival time, dose: 5.0 mg/kg/injection, schedule: Q08HX027 (ip), vehicle: acetone): 90 % of control
T/C (endpoint: mean survival time, dose: 5.8 mg/kg/injection, schedule: Q01DX Z (ip), vehicle: carboxymethylcellulose (CMC)): 101 % of control and 103 % of control
T/C (endpoint: mean survival time, dose: 6.0 mg/kg/injection, schedule: Q12HX018 (ip), vehicle: Klucel (hydroxypropylcellulose) (HPC)): 116 % of control
T/C (endpoint: mean survival time, dose: 6.0 mg/kg/injection, schedule: Q12HX018 (ip), vehicle: acetone): 162 % of control
T/C (endpoint: mean survival time, dose: 6.0 mg/kg/injection, schedule: Q12HX018 (ip), vehicle: other): 120 % of control
T/C (endpoint: mean survival time, dose: 6.0 mg/kg/injection, schedule: Q12HX018 (ip), vehicle: saline with Tween-80): 120 % of control
T/C (endpoint: mean survival time, dose: 6.25 mg/kg/injection, schedule: Q01DX Z (ip), vehicle: carboxymethylcellulose (CMC)): 113 % of control
T/C (endpoint: mean survival time, dose: 7.25 mg/kg/injection, schedule: Q01DX Z (ip), vehicle: carboxymethylcellulose (CMC)): 98 % of control and 103 % of control and 120 % of control
T/C (endpoint: mean survival time, dose: 8.0 mg/kg/injection, schedule: Q01DX009 (ip), vehicle: saline with Tween-80): 115 % of control and 116 % of control
T/C (endpoint: mean survival time, dose: 8.0 mg/kg/injection, schedule: Q04DX002 (ip), vehicle: saline with Tween-80): 96 % of control and 98 % of control
T/C (endpoint: mean survival time, dose: 8.0 mg/kg/injection, schedule: Q12HX018 (ip), vehicle: Klucel (hydroxypropylcellulose) (HPC)): 114 % of control and 118 % of control
T/C (endpoint: mean survival time, dose: 8.0 mg/kg/injection, schedule: Q12HX018 (ip), vehicle: acetone): 100 % of control
T/C (endpoint: mean survival time, dose: 8.0 mg/kg/injection, schedule: Q12HX018 (ip), vehicle: saline with Tween-80): 118 % of control
T/C (endpoint: mean survival time, dose: 9.66 mg/kg/injection, schedule: Q01DX Z (ip), vehicle: carboxymethylcellulose (CMC)): 100 % of control and 114 % of control
T/C (endpoint: mean survival time, dose: 10.0 mg/kg/injection, schedule: Q01DX001 (ip), vehicle: carboxymethylcellulose (CMC)): 109 % of control
T/C (endpoint: mean survival time, dose: 10.0 mg/kg/injection, schedule: Q12HX018 (ip), vehicle: acetone): 88 % of control
T/C (endpoint: mean survival time, dose: 12.0 mg/kg/injection, schedule: Q01DX009 (ip), vehicle: acetone): 122 % of control
T/C (endpoint: mean survival time, dose: 12.0 mg/kg/injection, schedule: Q12HX018 (ip), vehicle: Klucel (hydroxypropylcellulose) (HPC)): 103 % of control and 121 % of control
T/C (endpoint: mean survival time, dose: 12.0 mg/kg/injection, schedule: Q12HX018 (ip), vehicle: saline with Tween-80): 109 % of control
T/C (endpoint: mean survival time, dose: 12.5 mg/kg/injection, schedule: Q01DX Z (ip), vehicle: carboxymethylcellulose (CMC)): 110 % of control
T/C (endpoint: mean survival time, dose: 14.5 mg/kg/injection, schedule: Q01DX Z (ip), vehicle: carboxymethylcellulose (CMC)): 114 % of control and 117 % of control
T/C (endpoint: mean survival time, dose: 16.0 mg/kg/injection, schedule: Q01DX009 (ip), vehicle: acetone): 101 % of control and 115 % of control
T/C (endpoint: mean survival time, dose: 16.0 mg/kg/injection, schedule: Q01DX009 (ip), vehicle: saline with Tween-80): 121 % of control
T/C (endpoint: mean survival time, dose: 16.0 mg/kg/injection, schedule: Q04DX002 (ip), vehicle: saline with Tween-80): 100 % of control and 108 % of control
T/C (endpoint: mean survival time, dose: 16.0 mg/kg/injection, schedule: Q12HX018 (ip), vehicle: Klucel (hydroxypropylcellulose) (HPC)): 92 % of control
T/C (endpoint: mean survival time, dose: 18.0 mg/kg/injection, schedule: Q01DX001 (ip), vehicle: carboxymethylcellulose (CMC)): 105 % of control
T/C (endpoint: mean survival time, dose: 20.0 mg/kg/injection, schedule: Q01DX001 (ip), vehicle: carboxymethylcellulose (CMC)): 115 % of control
T/C (endpoint: mean survival time, dose: 20.0 mg/kg/injection, schedule: Q01DX009 (ip), vehicle: acetone): 92 % of control
T/C (endpoint: mean survival time, dose: 20.0 mg/kg/injection, schedule: Q12HX018 (ip), vehicle: Klucel (hydroxypropylcellulose) (HPC)): 89 % of control
T/C (endpoint: mean survival time, dose: 25.0 mg/kg/injection, schedule: Q01DX Z (ip), vehicle: carboxymethylcellulose (CMC)): 116 % of control
T/C (endpoint: mean survival time, dose: 27.0 mg/kg/injection, schedule: Q01DX001 (ip), vehicle: carboxymethylcellulose (CMC)): 109 % of control
T/C (endpoint: mean survival time, dose: 27.0 mg/kg/injection, schedule: Q01DX001 (ip), vehicle: saline with Tween-80): 113 % of control and 115 % of control
T/C (endpoint: mean survival time, dose: 31.0 mg/kg/injection, schedule: Q04DX002 (ip), vehicle: saline with Tween-80): 108 % of control and 109 % of control
T/C (endpoint: mean survival time, dose: 40.0 mg/kg/injection, schedule: Q01DX001 (ip), vehicle: carboxymethylcellulose (CMC)): 115 % of control
T/C (endpoint: mean survival time, dose: 41.0 mg/kg/injection, schedule: Q01DX001 (ip), vehicle: carboxymethylcellulose (CMC)): 114 % of control
T/C (endpoint: mean survival time, dose: 41.0 mg/kg/injection, schedule: Q01DX001 (ip), vehicle: saline with Tween-80): 115 % of control and 121 % of control
T/C (endpoint: median survival time, dose: 3.0 mg/kg/injection, schedule: Q01DX009 (ip), vehicle: saline): 99 % of control
T/C (endpoint: median survival time, dose: 6.0 mg/kg/injection, schedule: Q01DX009 (ip), vehicle: saline): 105 % of control
T/C (endpoint: median survival time, dose: 12.0 mg/kg/injection, schedule: Q01DX009 (ip), vehicle: saline): 96 % of control
T/C (endpoint: median survival time, dose: 24.0 mg/kg/injection, schedule: Q01DX009 (ip), vehicle: saline): 89 % of control

COc1nc(N)nc2c1ncn2C1OC(CO)C(O)C1O (configuration not stated)
T/C (endpoint: mean survival time, dose: 75.0 mg/kg/injection, schedule: Q01DX001 (ip), vehicle: saline): 102 % of control
T/C (endpoint: mean survival time, dose: 150.0 mg/kg/injection, schedule: Q01DX001 (ip), vehicle: saline): 93 % of control

CCCC[P+](CC(C)(C)c1ccc(C)cc1)(c1ccccc1)c1ccccc1
T/C (endpoint: mean survival time, dose: 1.56 mg/kg/injection, schedule: Q04DX002 (ip), vehicle: saline): 96 % of control
T/C (endpoint: mean survival time, dose: 3.13 mg/kg/injection, schedule: Q04DX002 (ip), vehicle: saline): 104 % of control
T/C (endpoint: mean survival time, dose: 6.25 mg/kg/injection, schedule: Q04DX002 (ip), vehicle: saline): 100 % of control
T/C (endpoint: mean survival time, dose: 12.5 mg/kg/injection, schedule: Q04DX002 (ip), vehicle: saline): 96 % of control
T/C (endpoint: mean survival time, dose: 100.0 mg/kg/injection, schedule: Q04DX002 (ip), vehicle: saline with Tween-80): 103 % of control
